Common to all, as to format: in vivo
For test [1], the system named is 2-phenyl-1,4-benzoquinone-induced stretching of the rear feet and torsion of the trunk. Kind of test: Siegmund test, analgesic power: phenylbenzoquinone-induced stretchings/torsions. The settings on record: Mus musculus, ip; mice; substance given 1 hour before intraperitoneal phenylbenzoquinone; observed 5th-10th minute. As to the method:
The intraperitoneal injection of 0.25 ml of a hydroalcoholic solution of 2-phenyl-1,4-benzoquinone at a concentration of 0.02% produces in mice a particular syndrom characterized by the stretching of the rear feet and the torsion of the trunk.
The test is carried out on homogeneous groups of 20 to 30 mice with an average weight of 20 g.
The substance to be studied is administered to them at the time "0." One hour later the phenylbenzoquinone is administered intraperitoneally. The animals are observed individually for 5 minutes, between the 5th and 10th minute following the injection of the phenyl benzoquinone. The number of stretchings performed by each animal during the observation period is noted.
The percentage of activity of the substance is calculated by comparing the number of torsions performed by the animals and those performed by pilot animals.

Test [2] has as its system carragheen-induced localized oedema. The experiment in a line: Acute oedema with carragheen, anti-inflammatory power. The settings on record: Rattus norvegicus, po; male rats; buccally 1 hour before carragheen; oedema 3 hours after carragheen. As to the method:
(§1) b. Anti-inflammatory power.
1. Acute oedema with carragheen.
(Winster C. A., Risley R. A., Nuss G. W. -- Proc.Soc.Biol. Med.1962,3,544-7).
The injection, under the arch of the rat's foot, of 0.05 ml of an aqueous gel with 1% carragheen produces a localized oedema which can be measured with an electric plethysmometer of the mercury type.
The percentage of inflammation can be calculated by measuring the volume of the […] foot before and 3 hours after the carragheen injection.
The treatment is given buccally, 1 hour before the carragheen.
The test is carried out on homogeneous groups of ten male rats of 180 ± 10 g.
For each animal the oedema is measured as follows: [formula]
When the percentage of oedema is known for the pilot group, the protection observed under the effect of the substance tested is deducted therefrom for the treated groups.

In test [3] the test system is Turfyl nicotinate (Trafuril)-induced erythema. The experiment in a line: Erythema with Turfyl nicotinate (Trafuril), anti-inflammatory power. The settings on record: Cavia porcellus, po; male albino guinea-pigs; buccally 1 hour before test; result at the end of 5 minutes. As to the method:
as §1
2. Erythema with Turfyl nicotinate(Trafuril).
The NAINING method is used (Br.jl.Pharmacol. 1963-21-104-12), slightly modified:
The test is carried out on homogeneous groups of six to 12 male albino guinea-pigs weighing 300-400 g, the skin of the back having been carefully plucked the day before.
On the day of the test an antibiogramme disc saturated with an alcoholic solution at 5% of Turfyl nicotinate is applied to the lumbar region for 1 minute.
The result is observed at the end of 5 minutes.
The results are recorded on an "all or nothing" basis, according to which an erythema appears at the place in which the disc was applied.
The treatment is administered buccally 1 hour before the test, with a uniform volume of 1 ml per kg of body weight; the products are placed in homogeneous suspension by the aid of 3% of gum arabic.
The pilot animals are given an equal volume of vehicle.
The percentage of erythema produced in the treated animals is compared with that of the pilot group observed at the same time.

Drawing on patent US4011328A, “Derivatives of pyridine-3-acetic acid, process for their preparation and applications thereof” (SERDEX - Societe d'Etudes, de Recherches, de Diffusion et …, priority 1973, dated 1977), this text covers ED50 for 2 compounds.

By ED50 is commonly meant the dose that gives a 50% effect, or the effect in half of the subjects. The low end stands for an effect at a small dose, the high end for a need for a large dose. With `COc1ccc(-c2nc(C)c(CC(=O)O)cc2-c2ccc(Cl)cc2)cc1` [Example 3], the ED50 in test [1] was found to be 0.9 mg/kg; in test [2] it was 28 mg/kg; in test [3], 5.2 mg/kg.

Take `Cc1ccc2c(c1)-c1nc(C)c(CC(=O)O)cc1CO2` [Example 1]: the ED50 amounted to 150 mg/kg in test [1], 16 mg/kg in test [2] and 78 mg/kg in test [3].
